This passage reports Blood glucose level results from patent US10646528B2, “Method for preparing extract of genus Panax including wild ginseng or ginseng, or cambial meristematic cells derived from genus panax or extract thereof containing rare ginsenosides in high quantity” (WELLKEY HOLDINGS LIMITED, priority 2014, dated 2020).

In the assay the test system is C57BL/6J mice. Kind of assay: oral glucose tolerance test (OGTT). Type of assay: in vivo. The settings on record: 2 g/kg D-glucose oral. As for the experimental part: The anti-diabetic effect of the wild ginseng CMCs prepared in Example 2 was examined by an oral glucose tolerance test OGTT. Wild ginseng CMCs were heat-treated at 95° C. for 48 hours, and an extract obtained by extracting the CMCs with 70% ethanol was administered orally. C57BL/6J mice (8-week-old, male) were fasted overnight. The weights and blood glucose levels of the C57BL/6J mice were measured, and then 2 g/kg of D-glucose was administered orally to the mice. At this time, the mice were fed with drinking water, but were not fed with feed. A change in the blood glucose level was measured at […] for 2 hours.
The […] was compared with resistant maltodextrin (RMD) and a red ginseng extract (RG-200), which are known as health supplements in the anti-diabetic field.

Take Resistant maltodextrin [RMD]: the Blood glucose level is, setting by setting: (Time 0, 2 g/kg-treated diabetic group) 169 mg/dL; (Time 30, 2 g/kg-treated diabetic group) 485 mg/dL; (Time 60, 2 g/kg-treated diabetic group) 350 mg/dL; (Time 120, 2 g/kg-treated diabetic group) 282 mg/dL.
